# According to US12268674B2, “Mi-2β inhibitor as an immunotherapy agent” (BioVentures, LLC, priority 2021, dated 2025):
# Assays:
# CMPK1 = target: T1, CMPK1 (Homo sapiens, UniProt P30085); assay: ATPase profile (ATP acyl phosphate probe); format: binding; conditions: CMPK1, SEQ ID NO: 60, ATP BS
# T1 construct: endogenous in cells; host or cells: A375 cell lysate
# DYNC1H1 = target: T2, DYNC1H1 (Homo sapiens, UniProt Q14204); assay: ATPase profile (ATP acyl phosphate probe); format: binding
# T2 construct: endogenous in cells; host or cells: A375 cell lysate
# [1] = tested on: Mi-2β target gene expression in B16F10 cells; assay: RT-qPCR of Mi-2β target genes in B16F10 cells treated with Z36-MP5; format: cell-based, mouse; conditions: 25 μM, 24 hours
# Description: Z36-MP5 was chosen for further validation and experimental therapeutics in vivo. […] To investigate its cellular inhibitory activity, B16-F10 cells were treated with Z36-MP5 at concentrations ranging from 5 to 100 μM, and the activation of Mi-2β target genes measured by RT-qPCR. Z36-MP5 at 25 μM induced Mi-2β target gene expression including Cxc9, Cxcl10 and Irf1 (FIG. 11c) in B16F10 cells. We also performed the co-culture assays of B16F10 cells with activated Pmel-1 T cells to identify whether Z36-MP5 stimulation can activate T cell mediated cytotoxicity. […] In addition, the pharmacokinetic properties of Z36-MP5 in Sprague-Dawley rats with administration of intraperitoneal injection dose of 1.0 mg/kg.
# The total RNA was extracted with QIAGEN RNeasy kit […] for cDNA synthesis with SuperScript II Reverse Transcriptase (Invitrogen). In total, 40 ng cDNA was used for quantitative real-time PCR amplification by TaqMan Gene Expression Master Mix (Thermo Fisher Scientific). The relative transcript levels were normalized with GAPDH expression. The data were calculated with the comparative CT method.
# TTLL12 = target: T3, TTLL12 (Homo sapiens, UniProt Q14166); assay: ATPase profile (ATP acyl phosphate probe); format: binding
# T3 construct: to get the native cell lysate; endogenous in cells; host or cells: A375 cell lysate
# [2] = tested on: panel of 233 diverse ATPases; assay: ATP acyl phosphate probe assay, ATPase profile in native A375 cell lysates; format: binding; conditions: 1 μM
# PSMC1 = target: T4, PSMC1 (Homo sapiens, UniProt P62191); assay: ATPase profile (ATP acyl phosphate probe); format: binding; conditions: PSMC1, SEQ ID NO: 173, ATP BS
# T4 construct: endogenous in cells; host or cells: A375 cell lysate
# NOP2 = target: T5, NOP2 (Homo sapiens, UniProt P46087); assay: ATPase profile (ATP acyl phosphate probe); format: binding; conditions: NOP2, SEQ ID NO: 136, ATP BS
# T5 construct: to get the native cell lysate; endogenous in cells; host or cells: A375
# AK7 = target: T6, AK7 (Homo sapiens, UniProt Q96M32); assay: ATPase profile (ATP acyl phosphate probe); format: binding; conditions: AK7, SEQ ID NO: 37, ATP BS
# T6 construct: to get the native cell lysate; host or cells: A375 cell lysate
# EPRS = target: T7, EPRS (Homo sapiens, UniProt P07814); assay: ATPase profile (ATP acyl phosphate probe); format: binding; conditions: SEQ ID NO: 77, ATP BS
# T7 construct: endogenous in cells; host or cells: A375 cell lysate
# NME3 = target: T8, NME3 (Homo sapiens, UniProt Q13232); assay: ATPase profile (ATP acyl phosphate probe); format: binding; conditions: NME3, SEQ ID NO: 134, ATP BS
# T8 construct: to get the native cell lysate; endogenous in cells; host or cells: A375
# HSPA1A = target: T9, HSPA1A (Homo sapiens, UniProt P0DMV8); assay: ATPase profile (ATP acyl phosphate probe); format: binding
# T9 construct: to get the native cell lysate; endogenous in cells; host or cells: A375
# BAT1 = target: T10, BAT1 (Homo sapiens, UniProt Q13838); assay: ATPase profile (ATP acyl phosphate probe); format: binding; conditions: BAT1, SEQ ID NO: 49, ATP BS
# T10 construct: to get the native cell lysate; host or cells: A375 cell lysate
# B16F10 cells = assay: Co-culture assay of B16F10 cells with activated Pmel-1 T cells; format: cell-based, mouse; conditions: 25 μM; IFN-γ pretreated; activated Pmel-1 T cells 1:1, three days
# Description: Pmel-1 TCR transgenic mice were purchased from Jackson Laboratory (stock #005023). The CD8 T cells were isolated from spleen and lymph nodes from Pmel-1 transgenic mice using the CD8a^+ T Cell Isolation Kit, mouse (Miltenyi Biotec, Order no: 130-104-075) according to the manufacturer's protocol. Freshly isolated CD8 T cells were stimulated with anti-CD3/CD28 beads (Thermo Fisher Scientific #11452D) for 3 days, and then the recombinant mouse IL-2 (Biolegend, #575406) was added at 20 ng/ml. After 6 days activation, T cells were used for co-culture with B16F10 cells.
# B16F10 cells with shMi-2β or shScrambles were transfected with GFP expression vector pcDNA3-EGFP (Plasmid #13031), and the stable cell line was selection with 800 μg/mL G418. For in vitro validation, Mi-2β-deficient B16F10 cells (GFP positive) were mixed with control B16F10 cells (GFP negative) at a 1:1 ratio. The cells were treated with 10 ng/ml of IFN-γ for 24 hours, and then co-cultured with activated Pmel-1 T cells. After three days, the depletion of Mi-2β knockdown B16F10 cells was determined by FACS, comparing the percentage of knockdown cells (GFP positive) to control B16F10 cells (GFP negative).
# ALDH16A1 = target: T11, ALDH16A1 (Homo sapiens, UniProt Q8IZ83); assay: ATPase profile (ATP acyl phosphate probe); format: binding; conditions: ALDH16A1, SEQ ID NO: 38, ATP BS
# T11 construct: to get the native cell lysate; host or cells: A375 cell lysate
# AARS = target: T12, AARS (Homo sapiens, UniProt P49588); assay: ATPase profile (ATP acyl phosphate probe); format: binding; conditions: SEQ ID NO: 1, ATP BS
# T12 construct: to get the native cell lysate; host or cells: A375 cell lysate
# ABCB10 = target: T13, ABCB10 (Homo sapiens, UniProt Q9NRK6); assay: ATPase profile (ATP acyl phosphate probe); format: binding; conditions: ABCB10, SEQ ID NO: 2, ATP BS
# T13 construct: to get the native cell lysate; host or cells: A375 cell lysate
# DERA = target: T14, DERA (Homo sapiens, UniProt Q9Y315); assay: ATPase profile (ATP acyl phosphate probe); format: binding; conditions: SEQ ID NO: 71, ATP BS
# T14 construct: endogenous in cells; host or cells: A375 cell lysate
# MVK = target: T15, MVK (Homo sapiens, UniProt Q03426); assay: ATPase profile (ATP acyl phosphate probe); format: binding; conditions: SEQ ID NO: 127, ATP BS
# T15 construct: to get the native cell lysate; endogenous in cells; host or cells: A375
# [3] = tested on: HSP90AA, HSP90AA2, HSP90AB1; assay: ATPase profile (ATP acyl phosphate probe); format: binding; conditions: HSP90AA2, HSP90AB1, SEQ ID NO: 96, ATP BS
# RAD17 = target: T16, RAD17 (Homo sapiens, UniProt O75943); assay: ATPase profile (ATP acyl phosphate probe); format: binding; conditions: RAD17, SEQ ID NO: 181, ATP BS
# T16 construct: to get the native cell lysate; endogenous in cells; host or cells: A375 cell lysate
# T9 sequence (P0DMV8 whole entry): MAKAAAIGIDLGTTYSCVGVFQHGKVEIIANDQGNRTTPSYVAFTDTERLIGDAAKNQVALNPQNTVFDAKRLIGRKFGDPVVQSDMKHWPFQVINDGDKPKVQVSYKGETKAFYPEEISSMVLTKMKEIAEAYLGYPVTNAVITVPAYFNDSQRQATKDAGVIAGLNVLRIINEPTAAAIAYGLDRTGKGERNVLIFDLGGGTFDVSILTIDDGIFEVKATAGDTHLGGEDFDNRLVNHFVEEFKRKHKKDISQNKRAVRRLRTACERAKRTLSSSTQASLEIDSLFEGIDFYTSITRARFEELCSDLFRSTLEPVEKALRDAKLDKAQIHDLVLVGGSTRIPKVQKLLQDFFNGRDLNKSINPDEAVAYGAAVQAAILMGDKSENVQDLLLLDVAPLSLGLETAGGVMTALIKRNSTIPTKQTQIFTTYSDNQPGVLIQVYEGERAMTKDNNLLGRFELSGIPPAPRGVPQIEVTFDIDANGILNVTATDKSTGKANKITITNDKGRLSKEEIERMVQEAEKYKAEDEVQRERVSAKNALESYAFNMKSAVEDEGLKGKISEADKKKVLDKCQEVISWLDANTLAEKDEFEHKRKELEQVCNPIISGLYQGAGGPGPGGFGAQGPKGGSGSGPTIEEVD
# T3 sequence (Q14166 whole entry): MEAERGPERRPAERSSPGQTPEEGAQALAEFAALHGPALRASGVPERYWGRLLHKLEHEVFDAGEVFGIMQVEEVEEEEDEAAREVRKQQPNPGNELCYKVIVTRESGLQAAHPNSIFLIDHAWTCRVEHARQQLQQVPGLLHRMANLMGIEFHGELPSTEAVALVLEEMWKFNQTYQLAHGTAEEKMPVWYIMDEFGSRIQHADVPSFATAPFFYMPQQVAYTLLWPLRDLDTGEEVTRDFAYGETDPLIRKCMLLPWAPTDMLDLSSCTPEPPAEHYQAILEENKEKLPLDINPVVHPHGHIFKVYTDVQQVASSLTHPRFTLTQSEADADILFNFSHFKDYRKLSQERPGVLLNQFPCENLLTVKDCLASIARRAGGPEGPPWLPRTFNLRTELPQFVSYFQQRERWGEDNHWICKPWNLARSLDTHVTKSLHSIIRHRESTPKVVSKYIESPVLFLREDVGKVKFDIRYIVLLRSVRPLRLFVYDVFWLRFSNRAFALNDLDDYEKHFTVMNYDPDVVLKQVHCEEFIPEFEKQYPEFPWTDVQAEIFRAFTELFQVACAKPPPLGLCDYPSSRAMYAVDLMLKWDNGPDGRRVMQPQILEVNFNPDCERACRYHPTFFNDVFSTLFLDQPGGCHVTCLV
# T8 sequence (Q13232 whole entry): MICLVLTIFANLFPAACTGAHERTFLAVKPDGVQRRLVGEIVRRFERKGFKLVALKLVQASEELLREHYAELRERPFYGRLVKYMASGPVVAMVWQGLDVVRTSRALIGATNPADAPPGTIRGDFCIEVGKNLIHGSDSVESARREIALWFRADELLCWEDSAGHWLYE
# T15 sequence (Q03426 whole entry): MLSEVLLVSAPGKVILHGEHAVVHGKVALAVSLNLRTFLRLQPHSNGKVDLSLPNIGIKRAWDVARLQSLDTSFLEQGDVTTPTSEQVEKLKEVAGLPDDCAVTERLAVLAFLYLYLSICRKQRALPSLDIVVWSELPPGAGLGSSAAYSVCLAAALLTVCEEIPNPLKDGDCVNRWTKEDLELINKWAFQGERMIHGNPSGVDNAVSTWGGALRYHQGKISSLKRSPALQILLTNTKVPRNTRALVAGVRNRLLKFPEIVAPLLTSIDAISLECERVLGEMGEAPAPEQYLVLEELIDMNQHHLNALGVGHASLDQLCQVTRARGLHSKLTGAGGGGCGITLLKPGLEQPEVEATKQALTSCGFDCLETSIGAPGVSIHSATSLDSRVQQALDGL
# T13 sequence (Q9NRK6 106-738): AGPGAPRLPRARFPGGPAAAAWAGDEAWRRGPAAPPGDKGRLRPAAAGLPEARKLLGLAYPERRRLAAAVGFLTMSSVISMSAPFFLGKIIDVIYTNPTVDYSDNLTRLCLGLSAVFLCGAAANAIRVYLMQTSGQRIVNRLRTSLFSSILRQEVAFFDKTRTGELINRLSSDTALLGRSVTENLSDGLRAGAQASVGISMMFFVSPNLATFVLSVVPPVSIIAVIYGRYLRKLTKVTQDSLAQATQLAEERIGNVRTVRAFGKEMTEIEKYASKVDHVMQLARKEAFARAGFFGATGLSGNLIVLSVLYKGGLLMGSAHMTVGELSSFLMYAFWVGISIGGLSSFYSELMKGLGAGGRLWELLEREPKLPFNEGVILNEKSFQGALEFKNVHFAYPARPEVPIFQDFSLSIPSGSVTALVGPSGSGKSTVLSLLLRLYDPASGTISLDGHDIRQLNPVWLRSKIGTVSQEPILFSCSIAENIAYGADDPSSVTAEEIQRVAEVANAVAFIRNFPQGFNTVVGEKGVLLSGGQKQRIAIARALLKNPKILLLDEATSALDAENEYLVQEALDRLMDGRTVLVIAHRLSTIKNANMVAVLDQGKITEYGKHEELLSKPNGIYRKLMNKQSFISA
# T11 sequence (Q8IZ83 whole entry): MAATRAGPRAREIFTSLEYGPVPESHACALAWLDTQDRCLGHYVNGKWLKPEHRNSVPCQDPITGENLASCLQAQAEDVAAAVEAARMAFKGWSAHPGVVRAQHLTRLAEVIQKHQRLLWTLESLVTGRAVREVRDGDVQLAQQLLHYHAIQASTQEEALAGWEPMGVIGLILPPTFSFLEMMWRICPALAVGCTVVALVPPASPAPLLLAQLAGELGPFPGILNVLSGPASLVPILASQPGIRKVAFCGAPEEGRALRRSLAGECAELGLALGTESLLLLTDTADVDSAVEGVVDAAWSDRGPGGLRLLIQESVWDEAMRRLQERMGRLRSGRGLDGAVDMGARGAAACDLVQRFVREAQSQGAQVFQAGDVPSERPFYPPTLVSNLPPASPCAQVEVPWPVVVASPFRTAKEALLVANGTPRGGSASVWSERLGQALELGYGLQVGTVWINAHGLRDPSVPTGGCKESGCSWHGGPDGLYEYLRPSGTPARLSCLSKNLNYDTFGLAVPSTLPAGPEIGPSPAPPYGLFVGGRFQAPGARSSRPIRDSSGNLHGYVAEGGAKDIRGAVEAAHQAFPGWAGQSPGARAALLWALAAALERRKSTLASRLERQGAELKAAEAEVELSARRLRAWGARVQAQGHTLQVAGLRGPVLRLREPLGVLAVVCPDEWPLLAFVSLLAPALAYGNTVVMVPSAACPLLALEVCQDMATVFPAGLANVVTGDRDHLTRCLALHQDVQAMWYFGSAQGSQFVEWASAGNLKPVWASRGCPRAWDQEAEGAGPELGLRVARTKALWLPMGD
# T6 sequence (Q96M32 whole entry): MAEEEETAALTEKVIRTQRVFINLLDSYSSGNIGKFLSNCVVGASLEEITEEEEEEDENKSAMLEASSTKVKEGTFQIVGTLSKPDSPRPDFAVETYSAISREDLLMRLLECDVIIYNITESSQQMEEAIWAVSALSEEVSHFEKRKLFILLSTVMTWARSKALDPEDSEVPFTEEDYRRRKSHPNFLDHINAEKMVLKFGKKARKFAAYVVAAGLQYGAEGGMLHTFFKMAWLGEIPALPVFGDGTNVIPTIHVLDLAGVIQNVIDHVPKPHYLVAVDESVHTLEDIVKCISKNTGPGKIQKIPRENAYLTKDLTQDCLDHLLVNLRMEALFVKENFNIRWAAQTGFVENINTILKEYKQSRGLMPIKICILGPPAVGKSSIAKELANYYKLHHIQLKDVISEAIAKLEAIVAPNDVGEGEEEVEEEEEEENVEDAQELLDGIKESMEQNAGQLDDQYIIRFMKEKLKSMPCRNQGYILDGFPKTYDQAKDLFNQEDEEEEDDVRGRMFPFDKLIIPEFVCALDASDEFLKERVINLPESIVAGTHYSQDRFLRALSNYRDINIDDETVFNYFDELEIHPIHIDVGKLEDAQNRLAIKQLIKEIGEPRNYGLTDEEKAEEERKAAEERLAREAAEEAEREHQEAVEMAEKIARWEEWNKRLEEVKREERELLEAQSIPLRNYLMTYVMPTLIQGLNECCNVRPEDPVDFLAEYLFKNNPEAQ
# T5 sequence (P46087 whole entry): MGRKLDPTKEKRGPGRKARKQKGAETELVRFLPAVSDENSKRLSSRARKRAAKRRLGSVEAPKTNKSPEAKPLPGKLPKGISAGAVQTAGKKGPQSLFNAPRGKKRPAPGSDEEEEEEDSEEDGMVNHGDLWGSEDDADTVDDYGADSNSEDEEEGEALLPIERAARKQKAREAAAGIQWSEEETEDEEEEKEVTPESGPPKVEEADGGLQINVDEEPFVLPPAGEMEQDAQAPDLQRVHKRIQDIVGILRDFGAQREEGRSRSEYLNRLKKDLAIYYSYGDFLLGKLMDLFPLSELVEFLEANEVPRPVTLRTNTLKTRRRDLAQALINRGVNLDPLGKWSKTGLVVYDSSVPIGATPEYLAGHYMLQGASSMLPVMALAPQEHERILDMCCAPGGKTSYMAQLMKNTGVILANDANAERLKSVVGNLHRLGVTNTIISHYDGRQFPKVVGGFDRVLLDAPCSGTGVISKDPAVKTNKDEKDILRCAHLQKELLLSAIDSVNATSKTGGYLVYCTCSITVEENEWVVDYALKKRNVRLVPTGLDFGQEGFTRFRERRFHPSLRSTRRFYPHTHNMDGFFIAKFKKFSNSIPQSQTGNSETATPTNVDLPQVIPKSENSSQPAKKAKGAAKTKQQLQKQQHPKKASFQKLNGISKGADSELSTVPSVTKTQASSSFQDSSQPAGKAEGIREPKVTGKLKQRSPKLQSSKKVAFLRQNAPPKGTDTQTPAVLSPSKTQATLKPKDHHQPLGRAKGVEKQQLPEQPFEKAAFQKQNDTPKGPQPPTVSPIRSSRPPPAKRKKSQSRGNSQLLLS
# T1 sequence (P30085 whole entry): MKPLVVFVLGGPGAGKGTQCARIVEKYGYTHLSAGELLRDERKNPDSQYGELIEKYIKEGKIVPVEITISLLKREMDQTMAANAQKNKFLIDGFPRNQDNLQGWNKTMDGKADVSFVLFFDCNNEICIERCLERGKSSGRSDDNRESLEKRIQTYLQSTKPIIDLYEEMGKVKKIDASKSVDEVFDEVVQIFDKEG
compound,measurement,setting,value
"Cn1c(=O)[nH]c2ccc(-c3cccc(C(=O)NC4CCn5ccnc5C4)c3)cc21 (centres unmarked) [Z36-MP5, 3-(3-methyl-2-oxo-2,3-dihydro-1H-benzo[d]imidazol-5-yl)-N-(5,6,7,8-tetrahydroimidazo[1,2-a]pyridin-7-yl)benzamide]",Inhibition (%) by 1 μM Z36-MP5,CMPK1,2.41%
same,Inhibition (%) by 1 μM Z36-MP5,"DYNC1H1; DYNC1H1, SEQ ID NO: 74, ATP BS",−1.99%
same,Inhibition (%) by 1 μM Z36-MP5,"DYNC1H1; DYNC1H1, SEQ ID NO: 75, ATP BS",0.38%
same,"Mi-2β target gene expression including Cxc9, Cxcl10 and Irf1",[1],induced
same,Inhibition (%) by 1 μM Z36-MP5,"TTLL12; TTLL12, SEQ ID NO: 215, ATP BS",−5.29%
same,Inhibition (%) by 1 μM Z36-MP5,"TTLL12; TTLL12, SEQ ID NO: 216, ATP BS",−17.65%
same,inhibition against a panel of 233 diverse ATPases,[2],less than 35%
same,Inhibition (%) by 1 μM Z36-MP5,PSMC1,−7.42%
same,Inhibition (%) by 1 μM Z36-MP5,NOP2,1.98%
same,Inhibition (%) by 1 μM Z36-MP5,AK7,13.86%
same,Inhibition (%) by 1 μM Z36-MP5,EPRS,0.78%
same,Inhibition (%) by 1 μM Z36-MP5,NME3,1.91%
same,Inhibition (%) by 1 μM Z36-MP5,"HSPA1A; SEQ ID NO: 100, ATP BS",−9.44%
same,Inhibition (%) by 1 μM Z36-MP5,"HSPA1A; SEQ ID NO: 101, ATP BS",−15.23%
same,Inhibition (%) by 1 μM Z36-MP5,BAT1,−9.58%
same,T cell-mediated killing of B16F10 cells,B16F10 cells,significantly induced
same,Inhibition (%) by 1 μM Z36-MP5,ALDH16A1,−1.13%
same,Inhibition (%) by 1 μM Z36-MP5,AARS,−29.97%
same,Inhibition (%) by 1 μM Z36-MP5,ABCB10,−6.14%
same,Inhibition (%) by 1 μM Z36-MP5,DERA,6.01%
same,Inhibition (%) by 1 μM Z36-MP5,MVK,15.38%
same,Inhibition (%) by 1 μM Z36-MP5,[3],−5.50%
same,Inhibition (%) by 1 μM Z36-MP5,RAD17,15.62%
